Values of other authors as cited in US20160213656A1, “H[…] FORM” (Sovereign Pharmaceuticals, LLC, priority 2004, published 2016).

CN1[C@@H]2CC[C@H]1C[C@@H](OC(=O)[C@H](CO)c1ccccc1)C2 [hyoscyamine]
time for which therapeutic levels are maintained (once absorbed, blood): approximately 3.5 hours
time within which the majority of hyoscyamine is excreted in the urine unchanged (urine, unchanged drug): ≤ 12 h
